In patent US4873331A, “Noradamantyl-carboxylic acid piperazinoalkyl esters” (American Home Products Corporation, priority 1988, dated 1989):

What was measured:
[1] = target: T1, 5-HT1A serotonin receptor subtype (Rattus norvegicus, UniProt P19327); assay: Affinity for 5-HT1A receptor sites, displacement of 3H-8-OH DPAT (Hall et al.); format: binding; details: for inhibition at 1 µM: 1 μM test compound
T1 construct: from tissue
T1 sequence (P19327 1-422): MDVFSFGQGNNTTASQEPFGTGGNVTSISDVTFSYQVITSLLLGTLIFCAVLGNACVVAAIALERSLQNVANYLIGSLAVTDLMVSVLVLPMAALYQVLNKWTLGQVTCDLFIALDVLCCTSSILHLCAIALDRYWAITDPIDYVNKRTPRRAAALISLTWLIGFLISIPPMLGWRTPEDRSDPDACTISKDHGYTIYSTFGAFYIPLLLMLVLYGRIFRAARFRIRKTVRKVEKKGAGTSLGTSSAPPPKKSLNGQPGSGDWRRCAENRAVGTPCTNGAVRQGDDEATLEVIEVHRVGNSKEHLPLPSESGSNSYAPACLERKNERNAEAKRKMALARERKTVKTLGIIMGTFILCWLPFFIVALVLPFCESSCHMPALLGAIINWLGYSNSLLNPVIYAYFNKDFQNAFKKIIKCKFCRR
From the text: The serotoninergic properties of the compounds of this invention were established by the procedure of Hall et al., J. Neurochem.

[2] = target: T2, limbic D2 (dopamine) receptor (Rattus norvegicus, UniProt P61169); assay: Affinity for D2 receptor sites, inhibition of 3H-spiroperidol binding to limbic brain tissue; details: 1 μM test compound
T2 construct: from tissue; host or cells: limbic brain tissue
T2 sequence (P61169 whole entry): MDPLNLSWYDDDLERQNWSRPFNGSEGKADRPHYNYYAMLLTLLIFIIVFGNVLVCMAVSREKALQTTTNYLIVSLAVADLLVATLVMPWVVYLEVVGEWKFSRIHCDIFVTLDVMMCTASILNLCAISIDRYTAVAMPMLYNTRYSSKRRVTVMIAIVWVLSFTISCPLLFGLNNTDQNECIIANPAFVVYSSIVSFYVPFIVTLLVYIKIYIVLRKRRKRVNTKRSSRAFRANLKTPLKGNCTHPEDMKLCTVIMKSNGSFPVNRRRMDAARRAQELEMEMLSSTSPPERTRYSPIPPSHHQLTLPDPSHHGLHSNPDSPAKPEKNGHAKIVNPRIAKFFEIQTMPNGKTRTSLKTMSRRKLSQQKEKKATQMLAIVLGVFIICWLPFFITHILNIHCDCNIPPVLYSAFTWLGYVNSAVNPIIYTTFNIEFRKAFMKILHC

M2 muscarinic receptor = target: T3, M2 muscarinic receptor (Rattus norvegicus, UniProt P10980); assay: M2 receptor binding, [3H] quinuclidinyl benzilate, rat cerebellum; details: [3H] quinuclidinyl benzilate 0.23 nM, 37° C., 60 minutes
T3 construct: Homogenized rat cerebellum tissue; from tissue; host or cells: rat cerebellum
T3 sequence (P10980 1-466): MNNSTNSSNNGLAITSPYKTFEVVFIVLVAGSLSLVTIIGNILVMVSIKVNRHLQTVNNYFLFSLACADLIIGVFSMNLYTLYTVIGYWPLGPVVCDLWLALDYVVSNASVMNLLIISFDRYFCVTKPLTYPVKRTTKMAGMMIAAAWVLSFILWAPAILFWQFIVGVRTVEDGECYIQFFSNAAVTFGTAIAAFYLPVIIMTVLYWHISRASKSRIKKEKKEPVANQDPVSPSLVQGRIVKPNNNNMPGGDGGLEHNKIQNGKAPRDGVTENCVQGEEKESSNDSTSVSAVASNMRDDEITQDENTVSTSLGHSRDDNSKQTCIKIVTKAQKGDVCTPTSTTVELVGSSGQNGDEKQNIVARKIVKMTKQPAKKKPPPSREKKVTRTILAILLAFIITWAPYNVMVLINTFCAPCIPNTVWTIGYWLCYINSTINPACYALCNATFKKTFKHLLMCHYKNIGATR

M1 muscarinic receptor = target: T4, M1 muscarinic receptor (Rattus norvegicus, UniProt P08482); assay: M1 muscarinic receptor binding, [3H] pirenzipine, rat hippocampus
T4 construct: from tissue; host or cells: rat hippocampus
T4 sequence (P08482 1-460): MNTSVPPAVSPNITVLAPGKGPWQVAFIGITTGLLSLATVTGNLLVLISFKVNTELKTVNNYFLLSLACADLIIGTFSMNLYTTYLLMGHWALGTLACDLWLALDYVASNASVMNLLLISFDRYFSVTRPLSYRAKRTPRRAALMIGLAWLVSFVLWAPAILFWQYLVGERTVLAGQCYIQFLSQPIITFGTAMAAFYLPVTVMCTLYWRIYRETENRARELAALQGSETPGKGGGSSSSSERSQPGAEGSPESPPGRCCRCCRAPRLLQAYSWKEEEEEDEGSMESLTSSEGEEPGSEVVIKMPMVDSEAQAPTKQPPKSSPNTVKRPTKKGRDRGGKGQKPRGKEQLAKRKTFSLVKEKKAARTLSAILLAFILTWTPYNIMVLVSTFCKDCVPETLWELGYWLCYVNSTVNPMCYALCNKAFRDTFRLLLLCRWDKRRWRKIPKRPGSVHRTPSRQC
Procedure: The M1 muscarinic receptor binding properties of the compounds of this invention were established as follows:
Homogenized rat hippocampus tissue is suspended in 0.32M aqueous sucrose solution and centrifuged (747×g for 10 minutes at 4° C.) and the supernatent liquid is decanted and recentrifuged (18,677×g for 20 minutes at 4° C.). The resulting pellet is resuspended in the original volume of 0.32M aqueous sucrose. The sample is then diluted 1:2 in 10 mM Na2 HPO4 /KH2 PO4 buffer (pH=7.4). A 100 μl sample of the buffered tissue suspension is incubated at 25° C. for 60 minutes in the dark with 10 μl of test compound or vehicle for control and [^3 H] pirenzipine (0.5 nM, 0.04 μCi) q.s. 1 milliliter with the buffer solution. Atropine sulfate (2 μM) is added to half the samples being processed. Binding is terminated by vacuum filtration onto Whatman GF/B filters which are washed three times with the buffer solution (3 ml/wash, 4° C.). […] Specific ]^3 H] PZ binding is defined as total binding minus binding in the presence of 2 μM atropine sulfate.

[3] = background statement, Barone et al., 1986; cited from earlier work

| inhibition at 1 µM [1] [%] | inhibition at 1 µM [2] [%] | Compound | further results |
| --- | --- | --- | --- |
| 93 | 47 | O=C(OCCN1CCN(c2ncccn2)CC1)C12CC3CC(CC1C3)C2 [Example 1, Hexahydro-2,5-methanopentalene-3a[1H]-carboxylic acid 2-[4-(2-pyrimidyl)-1-piperazinyl]ethyl ester] | Ki ([1]; calculated from IC50 values): 23 nM |
| 95 | 100 | COc1ccccc1N1CCN(CCOC(=O)C23CC4CC(CC2C4)C3)CC1 [Example 2, Hexahydro-2,5-methanopentalene-3a[1H]-carboxylic acid 2-[4-(2-methoxyphenyl)-1-piperazinyl]ethyl ester] | – |
| – | – | O=C(OCCCN1CCN(c2ncccn2)CC1)C12CC3CC(CC1C3)C2 [Example 3, Hexahydro-2,5-methanopentalene-3a[1H]-carboxylic acid 3-[4-(2-pyrimidyl)-1-piperazinyl]propyl ester] | IC50 (M2 muscarinic receptor): 69000 nM; inhibition at 0.1 µM ([1]; 100 nM test compound): 12%; M2/M1 Ratio (M1 muscarinic receptor; IC50 M2 / IC50 M1): 81; IC50 (M1 muscarinic receptor; rat hippocampus, [3H] pirenzipine 0.5 nM, 25° C., 60 minutes): 850 nM |
| 96 | 100 | COc1ccccc1N1CCN(CCCOC(=O)C23CC4CC(CC2C4)C3)CC1 [Example 4, Hexahydro-2,5-methanopentalene-3a[1H]carboxylic acid 3-[4-(2-methoxyphenyl)-1-piperazinyl]propyl ester] | – |
| – | – | Cc1nc2sccn2c(=O)c1CCN1CCC(=C(c2ccc(F)cc2)c2ccc(F)cc2)CC1 [Ritanserin] | clinical efficacy as anxiolytic-antidepressant agents [3]: demonstrate clinical efficacy as anxiolytic-antidepressant agents |
